Square brackets hold non-standard residues; d marks the D form. Peptide text beside a SMILES is read from it. * marks the point of attachment. ξ: configuration not given here. Ile(3ξ) = CCC(C)[C@H](N)C(=O)O; Boc = CC(C)(C)OC(=O)*; OtBu = CC(C)(C)O*

Consider 14 compounds from patent US20150119251A1, “AGRICULTURAL PLANT-PROTECTING AGENTS CONTAINING DIPEPTIDE DERIVATIVE AS ACTIVE INGREDIENT” (REPUBLIC OF KOREA (RURAL DEVELOPMENT ADMINISTRATION), priority 2012, published 2015).

The test relates to tobacco bacterial rot (Pectobacterium carotovorum). Kind of test: Suppression of tobacco bacterial rot. The class given is in vivo, Pectobacterium carotovorum SCC1. On the procedure:
A tobacco or cucumber was sown in a plastic pot with a diameter of 10 cm×13 cm, and then, 12 pots were added in a yellow box. After seeding, 100 μL was inoculated to the cotyledons of cucumber or tobacco, in which first leaf was started to come out. The test compounds were dissolved in 20% methanol to make a stock solution, and then, the stock solution was diluted to the concentrations of 1, 10, and 100 ppm.
After 7 days, the pathogen of a plant bacterial rot (Pectobacterium carotovorum SCC1) was cultured in a TSA medium for 27 hours; and then, the cultured pathogen was sprayed in a concentration of 10^8 cfu/mL to the plant leaves, and cultured at 30° C. for 3 days. The plant anthracnose germ (Colletotrichum orbiculare) was cultured in a GBA (Green bean agar) medium to induce spores for about 2 to 3 weeks. The germ was sprayed in a concentration of 10^5 cell/mL and then cultured at 26° C. for 1 day. When fourth or fifth leaf came out, 200 μL of each of the test compounds was inoculated to third leaf. After 7 days, the pathogen of the plant bacterial rot was sprayed to the plant leaves in the concentration of 10^8 cfu/mL, and then cultured at 30° C. for 3 days.
The investigation was performed with naked eyes, and the lesion relative areas were investigated until 0 to 100% according to the shortness degrees of the bacterial rot. The anthracnose was investigated by counting the number of lesions occurred on the leaves.

Turning to `COC(=O)[C@@H]1CCCN1C(=O)[C@H](CCC(N)=O)NC(=O)OC(C)(C)C` [Compound 23] (Boc-Gln-Pro-OMe), the Lesion outbreak rate amounted to 25% (Table 6, tobacco, 1 ppm); 52% (Table 6, tobacco, 10 ppm); 36% (Table 6, tobacco, 100 ppm).
As for `COC(=O)C1CCCN1C(=O)C(NC(=O)OC(C)(C)C)C(C)O` (stereo not drawn) [Compound 24] (Boc-Thr-Pro-OMe; configuration not given here), the Lesion outbreak rate is, setting by setting: (Table 4, tobacco, 1 ppm) 13%; (Table 4, tobacco, 10 ppm) 65%; (Table 4, tobacco, 100 ppm) 33%.
For `COC(=O)[C@@H]1CCCN1C(=O)[C@H](CC(=O)OC(C)(C)C)NC(=O)OC(C)(C)C` [Compound 25] (Boc-Asp(OtBu)-Pro-OMe) the same measures were 50%, 70% and 50%.
As for `COC(=O)[C@@H]1CCCN1C(=O)[C@H](CC(N)=O)NC(=O)OC(C)(C)C` [Compound 26] (Boc-Asn-Pro-OMe), the Lesion outbreak rate stood at 63% (Table 4, tobacco, 1 ppm); 23% (Table 4, tobacco, 10 ppm); 60% (Table 4, tobacco, 100 ppm).
The like results for `COC(=O)[C@@H]1CCCN1C(=O)[C@@H]1CCCN1C(=O)OC(C)(C)C` [Compound 27] (Boc-Pro-Pro-OMe) were, in that order, 33%, 30% and 20%.
For `COC(=O)[C@@H]1CCCN1C(=O)[C@H](CCCCNC(=O)OC(C)(C)C)NC(=O)OC(C)(C)C` [Compound 28] (Boc-Lys(Boc)-Pro-OMe) the same measures were 20%, 80% and 13%.
For `COC(=O)[C@@H]1CCCN1C(=O)[C@H](Cc1c[nH]cn1)NC(=O)OC(C)(C)C` [Compound 29] the same measures were 63%, 43% and 63%.
`COC(=O)[C@@H]1CCCN1C(=O)[C@H](CCC(=O)OC(C)(C)C)NC(=O)OC(C)(C)C` [Compound 30] (Boc-Glu(OtBu)-Pro-OMe): the Lesion outbreak rate is, setting by setting: (Table 4, tobacco, 1 ppm) 23%; (Table 4, tobacco, 10 ppm) 36%; (Table 4, tobacco, 100 ppm) 13%.
Turning to `COC(=O)[C@@H]1CCCN1C(=O)[C@H](CCCNC(=NC(=O)OCc1ccccc1)NC(=O)OCc1ccccc1)NC(=O)OC(C)(C)C` [Compound 31], the Lesion outbreak rate by setting is: (Table 4, tobacco, 1 ppm) 63%; (Table 4, tobacco, 10 ppm) 56%; (Table 4, tobacco, 100 ppm) 73%.
For `COC(=O)[C@@H]1CCCN1C(=O)[C@H](Cc1ccc(O)cc1)NC(=O)OC(C)(C)C` [Compound 32] (Boc-Tyr-Pro-OMe) the same measures were 78%, 30% and 60%.
For `COC(=O)[C@H]1CCCN1C(=O)[C@@H]1CCCN1C(=O)OC(C)(C)C` [Compound 33] (Boc-Pro-[dP]-OMe) the same measures were 80%, 38% and 18%.
For `CCC(C)[C@H](NC(=O)OC(C)(C)C)C(=O)N1CCC[C@@H]1C(=O)OC` (stereo partly drawn) [Compound 34] (Boc-[Ile(3ξ)]-[dP]-OMe) the same measures were 35%, 41% and 24%.
For the compound `COC(=O)[C@H]1CCCN1C(=O)[C@H](Cc1ccc(O)cc1)NC(=O)OC(C)(C)C` [Compound 35] (Boc-Tyr-[dP]-OMe), the Lesion outbreak rate runs as follows: (Table 4, tobacco, 1 ppm) 18%; (Table 4, tobacco, 10 ppm) 43%; (Table 4, tobacco, 100 ppm) 50%.
For `COC(=O)[C@H]1CCCN1C(=O)[C@H](CC(C)C)NC(=O)OC(C)(C)C` [Compound 36] (Boc-Leu-[dP]-OMe) the same measures were 45%, 41% and 38%.
